Earlier results, collected in US20240248099A1, “BIOMARKERS FOR AGE-RELATED MACULAR DEGENERATION” (BELITE BIO, LLC, priority 2021, published 2024).

Molecular target: T1, RBP4 (Homo sapiens, UniProt P02753)
T1 construct: host or cells: serum of AMD patients (endogenous circulating protein)

For `CC1=C(/C=C/C(C)=C/C=C/C(C)=C/C(=O)Nc2ccc(O)cc2)C(C)(C)CCC1` [fenretinide], the “incidence of choroidal neovascularization onset” value (246 AMD patients with only geographic atrophy, 100 mg or 300 mg fenretinide or placebo, 2 years, especially in the higher dose group) is given as “reduction in the incidence of choroidal neovascularization onset”, the “growth rate of geographic atrophy, overall cohort” value (overall cohort, insufficient number of subjects achieving serum RBP4 less than 1 μM) is given as “no statistically significant retardation of the growth rate of geographic atrophy” and the “rate of geographic atrophy progression versus serum RBP4 level” value (patients who achieved RBP4 levels below 1 μM (approximately 20 μg/ml) after fenretinide treatment) is given as “a lower serum RBP4 level was correlated with a slower rate of geographic atrophy progression”.
